What was measured:
[1] = tested on: single combed White Leghorn hens; assay: Mortality; type: in vivo
From the text: (§1) After the two week pre-molt adjustment period, the hens were randomly assigned to each of eight different groups. These treatment groups were as follows: (1) control, (2) forced molt, (3) chemical molt-injected, (4) vehicle control-injected, (5) chemical molt-microcapsules A, (6) vehicle control-microcapsules A, (7) chemical molt-microcapsules B, and (8) vehicle control-microcapsules B.
(§2) [D-Trp^6 ]LHRH was used as the LHRH receptor ligand for the chemical molt groups. The "chemical molt-injected" group received intramuscular (breast) injections of 25 micrograms/day of [D-Trp^6 ]LHRH for 10 consecutive days beginning on day 14. Alternate pectoral (breast) areas were injected each day. The "chemical molt-microcapsule" groups received a single intramuscular (breast) injection of microencapsulated [D-Trp^6 ]LHRH on day zero. This preparation of microcapsules provided a controlled release of 25 micrograms [D-Trp^6 ]LHRH per day for 15 consecutive days.
On day 14, the microcapsule injected groups received intramuscular injections of lactide/glycolide copolymer microcapsules which had [D-Trp^6 ]LHRH incorporated therein. The ligand-containing microcapsules administered the "Microcapsules A" group were prepared and supplied by Debiopharm (Lausanne, Switzerland). […]

[2] = tested on: single combed White Leghorn hens; assay: Egg parameters (specific gravity, total egg weight, shell weight); type: in vivo
Protocol: During the experiment, two birds were assigned to each cage (12"×18"). The hens were maintained in their cages for two weeks prior to the molt. They received a 17 hour light: 7 hour dark photoperiod throughout this phase of the experiment. During this time, the following parameters were measured:(a) body weight (weekly); (b) feed consumption (all hens received a common layer ration, and the feed consumed during this two week period was measured); (C) production records (daily); and (d), total egg weight, egg shell weight, and egg specific gravity (measured on three consecutive days each week). Serum samples were taken once, from 10 randomly selected hens from each treatment group, and saved for future study.
as §1, §2
(§3) On day 14, the microcapsule injected groups received intramuscular injections of lactide/glycolide copolymer microcapsules which had [D-Trp^6 ]LHRH incorporated therein. The ligand-containing microcapsules administered the "Microcapsules A" group were prepared and supplied by Debiopharm (Lausanne, Switzerland). These microcapsules were prepared by a phase-separation process to produce a free-flowing powder of spherical particles consisting of [D-Trp^6 ]LHRH (2% wt/wt) distributed within a polymeric matrix of 53:47(mol %) poly(DL-lactide-co-glycolide) (98% wt/wt) with an inherent viscosity of 0.7 dl/g. The microcapsules were 50 micrometers or less in diameter. […] Photomicrographs of similar microcapsules are presented in T. W. Redding, et al., Proc. Natl. Acad. Sci. U.S.A., 81, 5845 (Sept. 1984).
The remaining hens were maintained for a three month production period, during which the following parameters were measured: a. body weight (weekly for the first month and then twice a month); b. feed consumption (measured weekly); c. egg production (measured daily); and d. egg weight, shell weight and specific gravity (measured for three consecutive days each week for the first month, and then three consecutive days every two weeks).

[3] = tested on: single combed White Leghorn hens; type: in vivo
From the text: as §1, §2, §3
After the forced molt group achieved a 30% body weight loss, i.e., after 10 days of fasting, six hens from each group were necropsied. The liver, abdominal adipose tissue (fat pad), ovary plus ova and oviduct weights were measured. The remaining forced molt hens received a limited quantity of feed for two days, and were then fed ad libitum. For all groups, body weight and feed consumption were measured weekly. The lighting regime was increased, at weekly intervals, from natural day length to 17 hour light: seven hour dark. For the forced molt and chemical molt groups, when the first egg was produced after the molt, body weights were measured and body weights taken for the 10 selected birds.

[4] = tested on: single combed White Leghorn hens; assay: Induction of molt by LHRH receptor ligand; type: in vivo; settings: all treated groups, 25 micrograms/day
Protocol: as §1
The hens then received a seven day pre-molt treatment of a 24 hour light, zero hour dark photoperiod. On day 14 of the experiment the photoperiod was then reduced to natural day length for all treatments. Feed was made available ad libitum for all groups except the forced molt group. The forced molt group was deprived of food, but not of water, until a 30% body weight loss occurred (10 days of fasting).
[D-Trp^6 ]LHRH was used as the LHRH receptor ligand for the chemical molt groups. The "chemical molt-injected" group received intramuscular (breast) injections of 25 micrograms/day of [D-Trp^6 ]LHRH for 10 consecutive days beginning on day 14. Alternate pectoral (breast) areas were injected each day. […]
Microcapsules were suspended in disposable syringes in vehicle containing 2% carboxymethyl cellulose and 1% "TWEEN 20" in water. After thoroughly mixing the suspension, aliquots calculated to have released a dose of 25 micrograms/day for 15 consecutive days were injected into the breast muscle of the hens. […]

LHRH receptor = target: T1, LHRH receptor (Homo sapiens, UniProt P30968); settings: described in U.S. Pat. No. 4,010,125; cited from earlier work
T1 sequence (P30968 1-328): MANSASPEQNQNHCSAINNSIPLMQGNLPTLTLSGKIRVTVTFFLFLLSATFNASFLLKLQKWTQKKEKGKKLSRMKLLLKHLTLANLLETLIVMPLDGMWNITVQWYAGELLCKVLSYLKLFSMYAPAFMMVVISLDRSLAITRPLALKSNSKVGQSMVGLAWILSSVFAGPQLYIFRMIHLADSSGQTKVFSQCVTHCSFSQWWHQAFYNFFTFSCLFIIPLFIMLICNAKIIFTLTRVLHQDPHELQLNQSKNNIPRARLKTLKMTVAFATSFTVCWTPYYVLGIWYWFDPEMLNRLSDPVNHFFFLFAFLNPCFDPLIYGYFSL

[5] = Week 1 = days zero-2, before treatment
[6] = Week 2 = days 6-8, before treatment
[7] = hens killed immediately after the molt, Day 23

[D-Trp^6 ]LHRH [D-Trp^6 --LHRH]
MORTALITY: Number of Hens That Died ([1]; Evaluated from day 28 to day 94): 0 | mortality in words ([1]; groups that received the ligand): no mortality occurred | EGG SHELL WEIGHT [2, 5]: 5.46 g | EGG SPECIFIC GRAVITY [2, 5]: 1.079 (g/cm)^3 | TOTAL EGG WEIGHT [2, 5]: 66.04 g | EGG SHELL WEIGHT [2, 6]: 5.82 g | EGG SPECIFIC GRAVITY [2, 6]: 1.082 (g/cm)^3 | TOTAL EGG WEIGHT [2, 6]: 67.72 g | EGG SHELL WEIGHT ([2]; Week 3 = days 40-42): 5.15 g | EGG SPECIFIC GRAVITY ([2]; Week 3 = days 40-42): 1.075 (g/cm)^3 | TOTAL EGG WEIGHT ([2]; Week 3 = days 40-42): 64.38 g | EGG SHELL WEIGHT ([2]; Week 4 = days 47-49): 5.61 g | EGG SPECIFIC GRAVITY ([2]; Week 4 = days 47-49): 1.079 (g/cm)^3 | TOTAL EGG WEIGHT ([2]; Week 4 = days 47-49): 68.27 g | EGG SHELL WEIGHT ([2]; Week 5 = days 54-56): 5.79 g | EGG SPECIFIC GRAVITY ([2]; Week 5 = days 54-56): 1.079 (g/cm)^3 | TOTAL EGG WEIGHT ([2]; Week 5 = days 54-56): 68.81 g | EGG SHELL WEIGHT ([2]; Week 6 = days 61-63): 5.65 g | EGG SPECIFIC GRAVITY ([2]; Week 6 = days 61-63): 1.080 (g/cm)^3 | TOTAL EGG WEIGHT ([2]; Week 6 = days 61-63): 67.4 g | EGG SHELL WEIGHT ([2]; Week 7 = days 75-77): 5.59 g | EGG SPECIFIC GRAVITY ([2]; Week 7 = days 75-77): 1.079 (g/cm)^3 | TOTAL EGG WEIGHT ([2]; Week 7 = days 75-77): 67.19 g | quality of eggs produced after the molt ([2]; compared with conventional Forced Molted Group): as good in quality as the eggs produced by the conventional Forced Molted Group | involution of reproductive tract ([3]; both treated groups): exhibited involution of their reproductive tracts | Ovary Wt. [3, 7]: 10.38 g | Oviduct Wt. [3, 7]: 17.65 g | Abdominal Adipose Tissue Wt. ([3]; in vivo): 55.73 g | Body Wt. ([3]; in vivo): 1.784 kg | induction of molt [4]: induced to molt | duration of activity (LHRH receptor): prolonged activity

From patent US4761398A, “Method of inducing birds to molt” (Embrex, Inc., priority 1986, dated 1988)
